We go through eight molecules from patent US20060018921A1, “Histone deacetylase inhibitors and cognitive applications” (priority 2004, published 2006).

Molecules are shown by their SMILES. Entries after “also recorded” stand apart in the source; their conditions may differ. Starred links: 1 amine or outer side, 2 acyl side, 3 side chain; linkers in the order of their positions; H or OH if unused. Positions of bridges follow the written chain, without caps; N, C: chain ends. Non-standard residues stand in square brackets, D forms with d. Residues, ends and D or L forms follow the SMILES beside them. Chains are numbered I, II in the order given. Actinocin(9to1) = Cc1c2oc3c(C)ccc(C(=O)[*:1])c3nc-2c(C(=O)[*:2])c(N)c1=O; NMeV = CN[C@H](C(=O)O)C(C)C; Sar = CNCC(=O)O

One assay has as its system histone H3 (Lys14). Kind of assay: Acetylation of histone H3, acute hippocampal slices, area CA1. Conditions: for histone H3 acetylation: slices treated 1 h, FSK 50 μM with 100 μM Ro20-1724, 4αP 3 μM, dFSK 50 μM with 100 μM Ro20-1724, U0126 20 μM, TSA 1.65 μM; for histone H3 acetylation / effect of PDA on histone H3 acetylation after pretreatment with MEK inhibitor: PDA 3 μM; for histone H3 acetylation / effect of NMDA on acetylation of histone H3 after pretreatment with MEK inhibitor / effect of FSK on histone H3 acetylation after pretreatment with MEK inhibitor / effect of PDA on histone H3 acetylation after pretreatment with MEK inhibitor: PD98059 50 μM; for effect of NMDA on acetylation of histone H3 after pretreatment with MEK inhibitor / effect of FSK on histone H3 acetylation after pretreatment with MEK inhibitor / effect of PDA on histone H3 acetylation after pretreatment with MEK inhibitor: U0126 20 μM; for effect of NMDA on acetylation of histone H3 after pretreatment with MEK inhibitor: 100 μM NMDA 10 min; for effect of FSK on histone H3 acetylation after pretreatment with MEK inhibitor: FSK 50 μM with 100 μM Ro20-1724.

The next assay concerns ERK2. Kind of assay: P-ERK2 western blot, acute hippocampal slices, area CA1. Conditions: for levels of P-ERK2: slices treated 1 h, FSK 50 μM with 100 μM Ro20-1724, U0126 20 μM, 4αP 3 μM, dFSK 50 μM with 100 μM Ro20-1724, TSA; for levels of P-ERK2 / effect of PDA on P-ERK2 after pretreatment with MEK inhibitor: PDA 3 μM; for levels of P-ERK2 / effect of NMDA on P-ERK2 after pretreatment with MEK inhibitor / effect of FSK on P-ERK2 after pretreatment with MEK inhibitor / effect of PDA on P-ERK2 after pretreatment with MEK inhibitor: PD98059 50 μM; for effect of NMDA on P-ERK2 after pretreatment with MEK inhibitor / effect of FSK on P-ERK2 after pretreatment with MEK inhibitor / effect of PDA on P-ERK2 after pretreatment with MEK inhibitor: U0126 20 μM; for effect of NMDA on P-ERK2 after pretreatment with MEK inhibitor: 100 μM NMDA 10 min; for effect of FSK on P-ERK2 after pretreatment with MEK inhibitor: FSK 50 μM with 100 μM Ro20-1724.

The next assay has as its system ERK1. Briefly: P-ERK1 western blot, acute hippocampal slices, area CA1. Conditions: slices treated 1 h; data not shown. (In western blotting, separated proteins are transferred to a membrane and probed.)
Assay [1] deals with Schaffer-collateral synapses. Conditions: previous studies, Nguyen et al., 1994; cited from earlier work.
Assay [2] has as its system histone H4 (Lys5/Lys8/Lys12/Lys16). Briefly: Acetylation of histone H4, acute hippocampal slices, area CA1. Conditions: 100 μM NMDA 10 min, with or without U0126 or PD98059 pretreatment.
Where [3] appears, read: 100 μM NMDA in Mg++-free ACSF for 10 min.

Consider `CCCCCCCCCC(=O)O[C@@H]1[C@@H](C)[C@@]2(O)[C@@H](C=C(CO)C[C@@]3(O)C(=O)C(C)=C[C@@H]23)[C@@H]2C(C)(C)[C@]12OC(=O)CCCCCCCCC` [4αP, 4-α-phorbol 12,13-didecanoate], for which the entries for the “histone H3 acetylation” value with histone H3 (Lys14) and with histone H3 (Lys14) (listed as 4 αP) were “no effect on H3 acetylation” and “no affect on the acetylation of histone H3”, respectively. Further, the “levels of P-ERK2” value is “no effect on P-ERK2” in the assay on ERK2 and “no affect” with ERK2 (listed as 4 αP). Besides, the “levels of P-ERK1” value in the assay on ERK1 is “no affect”.
As to `OC[C@H]1O[C@@H](n2cnc3cc(Cl)c(Cl)cc32)[C@H](O)[C@@H]1O` [DRB, 5,6-dichlorobenzimidazole riboside], the basal synaptic transmission result in assay [1] is reported as “no effect on basal synaptic transmission”.
As for `CN[C@H](CC(=O)O)C(=O)O` [NMDA], the “acetylation of histone H3 in area CA1” value with histone H3 (Lys14) (setting [3]) was “increased acetylation of histone H3; also recorded: significantly increased”. For the same molecule, the “acetylation of histone H4 in area CA1” value in assay [2] was “no affect on acetylation of histone H4”. Besides, in the assay on ERK2 (setting [3]), the “phosphorylation of ERK2 in area CA1” value is on record as “induced significant increases in P-ERK2; also recorded: significantly increased”.
`COc1cccc(-c2cc(=O)c3ccccc3o2)c1N` [PD98059]: in the assay with histone H3 (Lys14), the “effect of NMDA on acetylation of histone H3 after pretreatment with MEK inhibitor” value is “blocked; also recorded: inhibited the affect of NMDA on acetylation of histone H3”, the “effect of FSK on histone H3 acetylation after pretreatment with MEK inhibitor” value is “blocked; also recorded: inhibited”, the “effect of PDA on histone H3 acetylation after pretreatment with MEK inhibitor” value is “blocked; also recorded: inhibited” and the “histone H3 acetylation” value is recorded as “no effect on basal levels of acetylation of histone H3”. For the same molecule, in the assay on ERK2, the “effect of NMDA on P-ERK2 after pretreatment with MEK inhibitor” value is listed as “blocked; also recorded: inhibited the affect of NMDA on P-ERK2”, the “effect of FSK on P-ERK2 after pretreatment with MEK inhibitor” value was “blocked”, the “effect of PDA on P-ERK2 after pretreatment with MEK inhibitor” value is “blocked” and the “levels of P-ERK2” value was “diminished”.
On to `CC(=O)O[C@@H]1[C@@H](C)[C@@]2(O)[C@@H](C=C(CO)C[C@]3(O)C(=O)C(C)=C[C@@H]23)[C@@H]2C(C)(C)[C@]12OC(C)=O` [PDA, phorbol 12,13-diacetate], for which the “histone H3 acetylation” value in the assay on histone H3 (Lys14) is “significantly increased acetylation of histone H3”. For the same molecule, the “levels of P-ERK2” value in the assay with ERK2 was “significantly increased; also recorded: significant increases in levels of P-ERK2”. The “levels of P-ERK1” value in the assay on ERK1 was “significantly increased”.
As for `N#CC(=C(/N)Sc1ccccc1N)/C(C#N)=C(\N)Sc1ccccc1N` [U0126], in the assay with histone H3 (Lys14), the “effect of NMDA on acetylation of histone H3 after pretreatment with MEK inhibitor” value was “blocked; also recorded: inhibited the affect of NMDA on acetylation of histone H3”, the “effect of FSK on histone H3 acetylation after pretreatment with MEK inhibitor” value is given as “blocked; also recorded: inhibited”, the “effect of PDA on histone H3 acetylation after pretreatment with MEK inhibitor” value is recorded as “blocked; also recorded: inhibited” and the “histone H3 acetylation” value is on record as “no effect on basal levels of acetylation of histone H3”. In the assay on ERK2, the “effect of NMDA on P-ERK2 after pretreatment with MEK inhibitor” value is “blocked; also recorded: inhibited the affect of NMDA on P-ERK2”, the “effect of FSK on P-ERK2 after pretreatment with MEK inhibitor” value is listed as “blocked”, the “effect of PDA on P-ERK2 after pretreatment with MEK inhibitor” value is “blocked” and the “levels of P-ERK2” value is “diminished”.
Consider `Cc1c2oc3c(C)ccc(C(=O)N[C@@H]4C(=O)N[C@H](C(C)C)C(=O)N5CCC[C@H]5C(=O)N(C)CC(=O)N(C)[C@@H](C(C)C)C(=O)O[C@@H]4C)c3nc-2c(C(=O)N[C@@H]2C(=O)N[C@H](C(C)C)C(=O)N3CCC[C@H]3C(=O)N(C)CC(=O)N(C)[C@@H](C(C)C)C(=O)O[C@@H]2C)c(N)c1=O` [actinomycin D, Actinomycin D] (I: T[dV]P[Sar][NMeV] / II: T[dV]P[Sar][NMeV]; ester I:1-I:C, II:1-II:C; linker I:N-II:N via Actinocin(9to1)), for which the basal synaptic transmission entry in assay [1] is reported as “no effect on synaptic transmission”.
For `C=C[C@@]1(C)CC(=O)[C@@H]2[C@@]3(C)CCCC(C)(C)[C@@H]3[C@H](O)[C@H](OC(C)=O)[C@@]2(C)O1` [dFSK, 1,9 dideoxyforskolin], in the assay with histone H3 (Lys14), the “histone H3 acetylation” value is “no affect on the acetylation of histone H3; also recorded: no effect on H3 acetylation”. The “levels of P-ERK2” value in the assay on ERK2 was “no affect; also recorded: no effect on P-ERK2”. Also, the “levels of P-ERK1” value with ERK1 was “no affect”.
